Patent US20090136551A1, “Substituted Dicyanoalkanes For Combating Animal Pests” (BASF AKTIENGESELLSCHAFT, priority 2005, published 2009)

What was measured:
[1] = tested on: Yellowfever Mosquito (Aedes aegyptii); assay: Activity via glass contact (treated glass vials); format: in vivo; conditions: read-out: mortality against yellowfever mosquito
Description: B.7. Activity Against Argentine Ant (Linepithema humile), Harvester Ant (Pogonomyrmex californicus), Acrobat Ant (Crematogaster spp.), Carpenter Ant (Camponotus floridanus), Fire Ant (Solenopsis invicta), House Fly (Musca domestica), Stable Fly (Stomoxys calcitrans), Flesh Fly (Sarcophaga sp.), Yellowfever Mosquito (Aedes aegyptii), House Mosquito (Culex quinquefasciatus), Malaria Mosquito (Anopheles albimanus), German Cockroach (Blattella Germanica), Cat Flea (Ctenocephalides felis), and Brown Dog Tick (Rhipicephalus sanguineus) Via Glass Contact
Glass vials were treated with 0.5 ml of a solution of active ingredient in acetone and allowed to dry. Insects or ticks were placed into each vial together with some food and moisture supply.

[2] = tested on: Bird Cherry-Oat Aphid (Rhopalosiphum padi); assay: Activity against bird cherry-oat aphid (sprayed barley leaf disks); format: in vivo; conditions: foliar, 120 h
Procedure: B.6. Activity Against Bird Cherry-Oat Aphid Aphid (Rhopalosiphum padi)
The active compounds were formulated in 1:3 DMSO:water. Barley leaf disks were placed into microtiterplates filled with 0.8% agar-agar and 2.5 ppm OPUS™. The leaf disks were sprayed with 2.5 μl of the test solution and 5 to 8 adult aphids were placed into the microtiterplates which were then closed and kept at 19-22° C. and 35-45% under fluorescent light for 5 days. Mortality was assessed on the basis of vital, reproduced aphids. Tests were replicated 2 times.

## N#CC(C#N)(CCC(F)(F)F)Cc1cccc2nsnc12 [I.1, 2-benzo[1,2,5]thiadiazol-4-ylmethyl-2-(3,3,3-trifluoropropyl)-malononitrile]
[1]
  mortality at 10 ppm: > 75%
[2]
  mortality at 300 ppm: > 90%
